Test results taken from US6828144B2, “Method of observing vasculogenesis in vitro using cultured allantois” (Wisconsin Alumni Research Foundation, priority 1996, dated 2004).
Where two headings read alike, the source gives them in different places.

System: headfold-stage allantoic explants
Details: for formation / retention of vascular channels in explants: 5% FCS, feeding at 24 hour intervals, by 72 hours
Protocol: At the onset of culture, or at varying times thereafter, known test compounds, such as Vascular Endothelial Growth Factor (VEGF, R & D Systems, Minneapolis, Minn.), are prepared according to the manufacturer's instructions and added to the cultures in concentrations recommended by the manufacturer (e.g., 1-20 ng VEGF/ml culture medium) or, in the case of unknown test compounds, in varying concentrations to determine the one that either inhibits or enhances vasculogenesis.
To test that possibility, recombinant VEGE (1-10 ng/ml culture medium) was added to explants at the start of culture in 5% FOS.
For survival and vascularization, allantoises were mouth-aspirated into a hand-pulled glass microcapillary (K. M. Downs and R. L. Gardner, supra, 1995; K. M. Downs, et al., supra, 1998) and either cultured in suspension as previously described (K. M. Downs, et al., supra, 1998) or placed individually (i) into wells of 24-well tissue-culture plates (Falcon 3047), (ii) onto glass cover slips (12 mm, Fisher) coated for 30 minutes in filtered (0.45 μm, cellulose acetate) poly-D-lysine (1 mg/ml double processed tissue culture water; Sigma) inserted into wells of 24-well tissue-culture plates and rinsed 34 times with sterile water, (iii) into sterile 8-well plastic chamber slides (Lab-Tek, Nunc), or (iv) into 8-well glass chamber slides some of which were coated in poly-D-lysine. Allantoises were cultured in 0.5 ml (24-well tissue-culture dishes or Falcon culture tubes (K. M. Downs and R. L. Gardner, supra, 1995) or 0.4 ml (8-well chamber slides) of culture medium (Dulbecco's modified Eagle's medium (DMEM) containing either equal parts of immediately-centrifuged and heat-inactivated rat serum as previously described (K. M. Downs and R. L. Gardner, supra, 1995) or 5, 10 and 20% heat-inactivated fetal calf serum (Gibco-BRL; frozen and thawed twice before using) for 24-72 hours at 37° C. in 6.2% CO2 in air. For culture longer than 24 hours, allantoises were given completely fresh medium at 24-hour intervals. In some experiments, erythrosin B (Fisher; 0.04% in phosphate-buffered saline (PBS); H. J. Phillips and J. E. Terryberry, Exp. Cell Res. 13:341-347, 1957) was diluted 1:1 in dissection medium to verify allantoic cell viability. Vascular Endothelial Growth Factor (R & D System,s Minneapolis, Minn.) was prepared according to the manufacturer's instructions and was added to culture medium containing 5% FCS in concentrations of 1-20 ng/ml.
To test that possibility, recombinant VEGF (1-10 ng/ml culture medium) was added to explants at the start of culture in 5% FCS.

VEGF
formation / retention of vascular channels in explants (VEGF 1 ng/ml): devoid of such channels
cell survival (cell retention) (VEGF 2-10 ng/ml in 5% FCS, untreated explants in FCS alone 36%): 78%
formation / retention of vascular channels in explants (VEGF 2-10 ng/ml, added at start of culture): retention of Flk-1 containing vascular channels and overlying VCAM-1 positive cells
formation / retention of vascular channels in explants (VEGF 2-10 ng/ml, added at start of culture, listed as Vascular Endothelial Growth Factor): formation of many vascular channels containing Flk-1 and Flt-1
survival of angioblasts and morphogenesis into vessels (explants cultured in low serum): promoted their survival and morphogenesis into vessels
